Drawing on patent US20260132125A1, “PESTICIDALLY ACTIVE FUSED BICYCLIC HETEROAROMATIC COMPOUNDS” (priority 2022, published 2026), this text covers percent control (mortality, anti-feedant effect or growth inhibition), percent effect (mortality or growth inhibition) and mortality for 14 molecules.

Each structure is given as a SMILES string.

Type in all cases: in vivo
In one assay the test system is Chilo suppressalis. In words: Example B1: activity against Chilo suppressalis (striped rice stemborer), artificial diet. The following applies: 144 h, 200 ppm, L2 larvae, 6 days after infestation, read-out: control (at least one of mortality, anti-feedant effect, growth inhibition). Put shortly: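 Artificial diet treated with aqueous dilutions of DMSO stocks (10'000 ppm stock), dried, then infested with 6-8 L2 larvae per well. Mortality, anti-feeding and growth inhibition scored against untreated samples 6 days after infestation. Control counted when any category exceeds untreated.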

The test system of the next assay is Plutella xylostella. In words: Example B5: activity against Plutella xylostella (diamond back moth), artificial diet, eggs. The following applies: 192 h, 8 days after infestation, read-out: effect in at least one of the two categories (mortality or growth inhibition). Put shortly: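 Artificial diet in 24-well plates was treated with aqueous dilutions of DMSO stocks, dried, then infested with Plutella eggs. Mortality and growth inhibition were scored against untreated samples 8 days after infestation; application rate 200 ppm.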

The test system of the next assay is Myzus persicae. As to the kind of experiment: Example B4: activity against Myzus persicae (green peach aphid), intrinsic activity. The following applies: 120 h, test rate 12 ppm, 5 days after infestation. How it is done:
Test compounds prepared from 10′000 ppm DMSO stock solutions were applied by pipette into 24-well microtiter plates and mixed with sucrose solution. The plates were closed with a stretched Parafilm. A plastic stencil with 24 holes was placed onto the plate and infested pea seedlings were placed directly on the Parafilm. The infested plate was closed with a gel blotting paper and another plastic stencil and then turned upside down. The samples were assessed for mortality 5 days after infestation.

In another assay the test system is Spodoptera littoralis. In words: Example B6: activity against Spodoptera littoralis (Egyptian cotton leaf worm), cotton leaf discs. The settings on record: foliar; for percent control (mortality, anti-feedant effect or growth inhibition) at 200 ppm: 72 h, L1 larvae, 3 days after infestation, read-out: control (at least one of mortality, anti-feedant effect, growth inhibition). Put shortly:
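Leaf discs on agar sprayed with aqueous dilutions of 10′000 ppm DMSO stocks, dried, then infested with five L1 larvae. Mortality, anti-feeding and growth inhibition scored versus untreated 3 days after infestation; control given when any category exceeds untreated.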

For the next assay, the system named is Diabrotica balteata. As to the kind of experiment: Example B2: activity against Diabrotica balteata (corn root worm), maize sprouts. The following applies: 96 h, L2 larvae, 4 days after infestation, read-out: effect in at least one of the two categories (mortality or growth inhibition). In short, it runs like this: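 Maize sprouts on agar were sprayed with aqueous test solutions made from 10′000 ppm DMSO stocks, dried, then infested with 6–10 L2 larvae per well. Mortality and growth inhibition were scored against untreated samples 4 days after infestation, at an application rate of 200 ppm.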

Another assay has as its system Pseudoplusia includens. As to the kind of experiment: Example B9: Pseudoplusia includens (soybean looper), larvicide, feeding/contact, soybean plants. The settings on record: Chrysodeixis includens, 120 h; 50 ppm; L2 larvae; 5 days after infestation; read-out: effect in at least one of the two categories (mortality or growth inhibition). How it is done: Soybean plants were treated in a spray chamber, cut off and placed into petri dishes containing wet filter paper. 1d after application leaves were infested with 5 L2 larvae and covered with a fabric filter and plastic lids. 5 days after infestation the samples were assessed for mortality and growth inhibition. The following compounds gave an effect of at least 80% in at least one of the two categories (mortality or growth inhibition) at an application rate of 50 ppm: […]

The test system of another assay is Euschistus heros. In words: Example B3: activity against Euschistus heros (neotropical brown stink bug), soybean leaves. The settings on record: 120 h, N2 nymphs, 5 days after infestation, read-out: effect in at least one of the two categories (mortality or growth inhibition). The procedure:
Soybean leaves on agar in 24-well microtiter plates were sprayed with aqueous test solutions prepared from 10′000 ppm DMSO stock solutions. After drying the leaves were infested with N2 nymphs. The samples were assessed for mortality and growth inhibition in comparison to untreated samples 5 days after infestation. The following compounds gave an effect of at least 80% in at least one of the two categories (mortality or growth inhibition) at an application rate of 200 ppm: […]

Consider `CNC(=O)c1cc(-n2ncnc2[C@H](C)Nc2ncnc3c(Cl)cc(C(F)(F)F)cc23)ncn1` [Compound P16, 6-[5-[(1S)-1-[[8-chloro-6-(trifluoromethyl)quinazolin-4-yl]amino]ethyl]-1,2,4-triazol-1-yl]-N-methyl-pyrimidine-4-carboxamide], for which the percent control (mortality, anti-feedant effect or growth inhibition) at 200 ppm in the assay with Chilo suppressalis and in the assay with Spodoptera littoralis was not below 80% each time. Besides, the percent effect (mortality or growth inhibition) at 200 ppm in the assay on Plutella xylostella and in the assay on Diabrotica balteata was not below 80% each time. The molecule further registered a mortality at 12 ppm in the assay on Myzus persicae not below 80%. In the assay on Pseudoplusia includens, the percent effect (mortality or growth inhibition) at 50 ppm was not below 80%.

`CNC(=O)c1cc(-n2ncnc2[C@H](C)N(C)c2ncnc3c(I)cc(Cl)cc23)ncn1` [Compound P33, 6-[5-[(1S)-1-[(6-chloro-8-iodo-quinazolin-4-yl)-methyl-amino]ethyl]-1,2,4-triazol-1-yl]-N-methyl-pyrimidine-4-carboxamide]: the percent control (mortality, anti-feedant effect or growth inhibition) at 200 ppm in the assay on Chilo suppressalis and in the assay with Spodoptera littoralis was not below 80% in each case. In addition, the percent effect (mortality or growth inhibition) at 200 ppm in the assay on Plutella xylostella and with Diabrotica balteata was not below 80% throughout. In the assay with Myzus persicae, this molecule returned a mortality at 12 ppm not below 80%. In addition, the percent effect (mortality or growth inhibition) at 50 ppm with Pseudoplusia includens is not below 80%.

Regarding `C[C@H](Nc1ncnc2c(C(F)(F)F)cc(Cl)cc12)c1ncnn1-c1ncc(C(N)=O)cn1` [Compound P68, 2-[5-[(1S)-1-[[6-chloro-8-(trifluoromethyl)quinazolin-4-yl]amino]ethyl]-1,2,4-triazol-1-yl]pyrimidine-5-carboxamide], the percent effect (mortality or growth inhibition) at 200 ppm in the assay with Euschistus heros is not below 80%.

For the molecule `C[C@H](Nc1ncnc2c(Cl)cc(I)cc12)c1ncnn1-c1ncc(C(N)=O)s1` [Compound P37, 2-[5-[(1S)-1-[(8-chloro-6-iodo-quinazolin-4-yl)amino]ethyl]-1,2,4-triazol-1-yl]thiazole-5-carboxamide], the percent control (mortality, anti-feedant effect or growth inhibition) at 200 ppm in the assay on Chilo suppressalis and in the assay with Spodoptera littoralis was not below 80% throughout. The percent effect (mortality or growth inhibition) at 200 ppm in the assay with Plutella xylostella and with Diabrotica balteata was not below 80% each time. This molecule registered a mortality at 12 ppm in the assay on Myzus persicae not below 80%. Further, in the assay with Spodoptera littoralis (50 ppm), the mortality at 50 ppm is 100%.

Take `C[C@H](Nc1ncnc2c(C(F)(F)F)cc(Cl)cc12)c1ncnn1-c1ncc(C(N)=O)s1` [Compound P8]: the percent control (mortality, anti-feedant effect or growth inhibition) at 200 ppm in the assay on Chilo suppressalis and with Spodoptera littoralis was not below 80% throughout. For the same molecule, the percent effect (mortality or growth inhibition) at 200 ppm with Plutella xylostella and in the assay on Diabrotica balteata was not below 80% throughout. In the assay on Myzus persicae, this molecule showed a mortality at 12 ppm not below 80%. Further, the percent effect (mortality or growth inhibition) at 50 ppm in the assay with Pseudoplusia includens was not below 80%.

Consider `C[C@@H](c1ncnn1-c1cc(C(N)=O)ncn1)N(C)c1ncnc2c(Cl)cc(I)cc12` [Compound P49, 6-[5-[(1S)-1-[(8-chloro-6-iodo-quinazolin-4-yl)-methyl-amino]ethyl]-1,2,4-triazol-1-yl]pyrimidine-4-carboxamide], for which the percent control (mortality, anti-feedant effect or growth inhibition) at 200 ppm in the assay with Chilo suppressalis and in the assay with Spodoptera littoralis was not below 80% throughout. Further, the percent effect (mortality or growth inhibition) at 200 ppm in the assay on Plutella xylostella and in the assay on Diabrotica balteata was not below 80% in each case. The molecule also had a mortality at 12 ppm in the assay with Myzus persicae not below 80%.

For the molecule `C[C@H](Nc1ncnc2c(C(F)(F)F)cc(Cl)cc12)c1ncnn1-c1cc(C(=O)NCCC#N)ncn1` [Compound P39], the percent control (mortality, anti-feedant effect or growth inhibition) at 200 ppm with Chilo suppressalis and with Spodoptera littoralis was not below 80% throughout. Besides, the percent effect (mortality or growth inhibition) at 200 ppm in the assay on Plutella xylostella and in the assay with Diabrotica balteata was not below 80% in each case. The molecule also returned a mortality at 12 ppm with Myzus persicae not below 80%.

For the molecule `C[C@H](Nc1ncnc2c(I)cc(Cl)cc12)c1ncnn1-c1cc(C(=O)N(C)C)ncn1` [Compound P65, 6-[5-[(1S)-1-[(6-chloro-8-iodo-quinazolin-4-yl)amino]ethyl]-1,2,4-triazol-1-yl]-N,N-dimethyl-pyrimidine-4-carboxamide], the percent control (mortality, anti-feedant effect or growth inhibition) at 200 ppm with Chilo suppressalis and with Spodoptera littoralis was not below 80% throughout. Further, the percent effect (mortality or growth inhibition) at 200 ppm in the assay with Plutella xylostella and in the assay with Diabrotica balteata was not below 80% each time. The molecule further registered a mortality at 12 ppm in the assay with Myzus persicae not below 80%.

For `C[C@H](Nc1ncnc2c(Br)cc(Br)cc12)c1ncnn1-c1cnc(C(N)=O)cn1` [Compound P74, 5-[5-[(1S)-1-[(6,8-dibromoquinazolin-4-yl)amino]ethyl]-1,2,4-triazol-1-yl]pyrazine-2-carboxamide], the percent effect (mortality or growth inhibition) at 200 ppm in the assay with Plutella xylostella and in the assay with Euschistus heros was not below 80% each time. Further, the percent control (mortality, anti-feedant effect or growth inhibition) at 200 ppm in the assay on Spodoptera littoralis was not below 80%.

With `C[C@H](Nc1ncnc2c(I)cc(Cl)cc12)c1ncnn1-c1cc(C#N)ncn1` [Compound P40, 6-[5-[(1S)-1-[(6-chloro-8-iodo-quinazolin-4-yl)amino]ethyl]-1,2,4-triazol-1-yl]pyrimidine-4-carbonitrile], the percent control (mortality, anti-feedant effect or growth inhibition) at 200 ppm in the assay on Chilo suppressalis and with Spodoptera littoralis was not below 80% each time. Besides, the percent effect (mortality or growth inhibition) at 200 ppm in the assay on Plutella xylostella and with Diabrotica balteata was not below 80% each time. The molecule also yielded a mortality at 12 ppm in the assay with Myzus persicae not below 80%.

Turning to `C[C@H](Nc1ncnc2c(C(F)(F)F)cc(Cl)cc12)c1ncnn1-c1cc(C(=O)N(C)CC#N)ncn1` [Compound P62, 6-[5-[(1S)-1-[[6-chloro-8-(trifluoromethyl)quinazolin-4-yl]amino]ethyl]-1,2,4-triazol-1-yl]-N-(cyanomethyl)-N-methyl-pyrimidine-4-carboxamide], the percent control (mortality, anti-feedant effect or growth inhibition) at 200 ppm with Chilo suppressalis and in the assay on Spodoptera littoralis was not below 80% throughout. Further, the percent effect (mortality or growth inhibition) at 200 ppm in the assay with Plutella xylostella and in the assay on Diabrotica balteata was not below 80% throughout. Further, in the assay with Myzus persicae, the mortality at 12 ppm was not below 80%. The percent effect (mortality or growth inhibition) at 50 ppm in the assay on Pseudoplusia includens was not below 80%.

`CNC(=O)c1cc(-n2ncnc2[C@H](C)Nc2ncnc3c(Br)cc(Br)cc23)ncn1` [Compound P12, 6-[5-[(1S)-1-[(6,8-dibromoquinazolin-4-yl)amino]ethyl]-1,2,4-triazol-1-yl]-N-methyl-pyrimidine-4-carboxamide]: the percent control (mortality, anti-feedant effect or growth inhibition) at 200 ppm with Chilo suppressalis and with Spodoptera littoralis was not below 80% in each case. In addition, the percent effect (mortality or growth inhibition) at 200 ppm with Plutella xylostella and in the assay on Diabrotica balteata was not below 80% throughout. Moreover, the mortality at 12 ppm in the assay on Myzus persicae was not below 80%.

Take `CNC(=O)c1cc(-n2ncnc2[C@H](C)N(C)c2ncnc3c(Cl)cc(I)cc23)ncn1` [Compound P34, 6-[5-[(1S)-1-[(8-chloro-6-iodo-quinazolin-4-yl)-methyl-amino]ethyl]-1,2,4-triazol-1-yl]-N-methyl-pyrimidine-4-carboxamide]: the percent control (mortality, anti-feedant effect or growth inhibition) at 200 ppm in the assay on Chilo suppressalis and with Spodoptera littoralis was not below 80% throughout. The percent effect (mortality or growth inhibition) at 200 ppm in the assay with Plutella xylostella and in the assay on Diabrotica balteata was not below 80% throughout. For the same molecule, the mortality at 12 ppm in the assay on Myzus persicae is not below 80%.

`CNC(=O)c1cc(-n2ncnc2[C@H](C)N(C)c2ncnc3c(Br)cc(Br)cc23)ncn1` [Compound P11, 6-[5-[(1S)-1-[(6,8-dibromoquinazolin-4-yl)-methyl-amino]ethyl]-1,2,4-triazol-1-yl]-N-methyl-pyrimidine-4-carboxamide]: the percent control (mortality, anti-feedant effect or growth inhibition) at 200 ppm with Chilo suppressalis and with Spodoptera littoralis was not below 80% each time. In addition, the percent effect (mortality or growth inhibition) at 200 ppm in the assay on Plutella xylostella and with Diabrotica balteata was not below 80% throughout. In the assay on Myzus persicae, this molecule gave a mortality at 12 ppm not below 80%.

In general, mortality refers to the share of the test organisms that died. Higher therefore signals a strong lethal effect.
